Reference: ChEMBL document CHEMBL5620394, “Synthesis of new antiproliferative 1,3,4-substituted-pyrrolo[3,2-c]quinoline derivatives, biological and in silico insights” (Eur J Med Chem, 2023)
Activity calls are given as the source filed them. The rule behind the calls is not given here.

Columns and labels:
[1] = test system: LA-N-5; test: Antiproliferative activity against human LA-N-5 cells assessed as inhibition of cell growth at 10 uM incubated for 4 hrs by MTS assay; type: functional, cell-based
[2] = test system: CAKI-1; test: Antiproliferative activity against human CAKI-1 cells assessed as cell growth at 10 uM incubated for 48 hrs by sulforhodamine B assay relative to control; type: functional; details: read-out: Activity
[3] = test system: PC-3; test: Antiproliferative activity against human PC-3 cells assessed as cell growth at 10 uM incubated for 48 hrs by sulforhodamine B assay relative to control; type: functional; details: read-out: Activity
[4] = test system: LA-N-5; test: Antiproliferative activity against human LA-N-5 cells assessed as reduction in cell growth at 10 to 100 uM incubated for 4 hrs by MTS assay; type: functional, cell-based; details: dose 10-100 µM
[5] = test system: UO-31; test: Antiproliferative activity against human UO-31 cells assessed as cell growth at 10 uM incubated for 48 hrs by sulforhodamine B assay relative to control; type: functional; details: read-out: Activity
[6] = test system: CCRF-CEM; test: Antiproliferative activity against human CCRF-CEM cells assessed as cell growth at 10 uM incubated for 48 hrs by sulforhodamine B assay relative to control; type: functional; details: read-out: Activity
[7] = test system: MDA-MB-231; test: Antiproliferative activity against human MDA-MB-231 cells assessed as cell growth at 10 uM incubated for 48 hrs by sulforhodamine B assay relative to control; type: functional; details: read-out: Activity
[8] = test system: HeLa; test: Antiproliferative activity against human HeLa cells assessed as inhibition of cell growth at >50 uM incubated for 4 hrs by MTS assay; type: functional, cell-based
[9] = test system: MCF7; test: Antiproliferative activity against human MCF7 cells assessed as cell growth at 10 uM incubated for 48 hrs by sulforhodamine B assay relative to control; type: functional; details: read-out: Activity
[10] = test system: SR; test: Antiproliferative activity against human SR cells assessed as cell growth at 10 uM incubated for 48 hrs by sulforhodamine B assay relative to control; type: functional; details: read-out: Activity
[11] = test system: RPMI-8226; test: Antiproliferative activity against human RPMI-8226 cells assessed as cell growth at 10 uM incubated for 48 hrs by sulforhodamine B assay relative to control; type: functional; details: read-out: Activity
[12] = test system: SNB-75; test: Antiproliferative activity against human SNB-75 cells assessed as cell growth at 10 uM incubated for 48 hrs by sulforhodamine B assay relative to control; type: functional; details: read-out: Activity
[13] = test system: NCI-H522; test: Antiproliferative activity against human NCI-H522 cells assessed as cell growth at 10 uM incubated for 48 hrs by sulforhodamine B assay relative to control; type: functional; details: read-out: Activity
[14] = test system: MCF7; test: Antiproliferative activity against human MCF7 cells assessed as inhibition of cell growth at >50 uM incubated for 4 hrs by MTS assay; type: functional, cell-based
[15] = test system: HeLa; test: Antiproliferative activity against human HeLa cells assessed as inhibition of cell growth incubated for 4 hrs by MTS assay; type: functional
[16] = test system: K562; test: Antiproliferative activity against human K562 cells assessed as cell growth at 10 uM incubated for 48 hrs by sulforhodamine B assay relative to control; type: functional; details: read-out: Activity
[17] = test system: NCI-H292; test: Antiproliferative activity against human NCI-H292 cells assessed as inhibition of cell growth at >50 uM incubated for 4 hrs by MTS assay; type: functional, cell-based
[18] = test system: NCI-H226; test: Antiproliferative activity against human NCI-H226 cells assessed as cell growth at 10 uM incubated for 48 hrs by sulforhodamine B assay relative to control; type: functional; details: read-out: Activity
[19] = Antiproliferative activity against human LA-N-5 cells assessed as inhibition of cell growth incubated for 4 hrs by MTS assay; type: functional
[20] = Antiproliferative activity against human 16HBE14o- cells assessed as inhibition of cell growth incubated for 4 hrs by MTS assay; type: toxicity, cell-based; details: read-out: IG50
[21] = test system: 786-0; test: Antiproliferative activity against human 786-0 cells assessed as cell growth at 10 uM incubated for 48 hrs by sulforhodamine B assay relative to control; type: functional; details: read-out: Activity
[22] = test system: UACC-62; test: Antiproliferative activity against human UACC-62 cells assessed as cell growth at 10 uM incubated for 48 hrs by sulforhodamine B assay relative to control; type: functional; details: read-out: Activity
[23] = test system: UACC-257; test: Antiproliferative activity against human UACC-257 cells assessed as cell growth at 10 uM incubated for 48 hrs by sulforhodamine B assay relative to control; type: functional; details: read-out: Activity
[24] = test system: HL-60; test: Antiproliferative activity against human HL-60 cells assessed as cell growth at 10 uM incubated for 48 hrs by sulforhodamine B assay relative to control; type: functional; details: read-out: Activity
[25] = test system: MCF7; test: Antiproliferative activity against human MCF7 cells assessed as inhibition of cell growth incubated for 4 hrs by MTS assay; type: functional
[26] = test system: HT-29; test: Antiproliferative activity against human HT-29 cells assessed as cell growth at 10 uM incubated for 48 hrs by sulforhodamine B assay relative to control; type: functional; details: read-out: Activity
[27] = test system: T47D; test: Antiproliferative activity against human T47D cells assessed as cell growth at 10 uM incubated for 48 hrs by sulforhodamine B assay relative to control; type: functional; details: read-out: Activity
[28] = test system: MOLT-4; test: Antiproliferative activity against human MOLT-4 cells assessed as cell growth at 10 uM incubated for 48 hrs by sulforhodamine B assay relative to control; type: functional; details: read-out: Activity

CCn1c(C)c(C(C)=O)c2c(-c3ccccc3)nc3ccccc3c21
Activity [1]: Active
growth at 10 µM [2]: 93.8%
growth at 10 µM [3]: 80.5%
Activity [4]: Active
growth at 10 µM [5]: 82.5%
growth at 10 µM [6]: 88.5%
growth at 10 µM [7]: 91.1%
Activity [8]: Active
growth at 10 µM [9]: 93.6%
growth at 10 µM [10]: 91.7%
growth at 10 µM [11]: 79.6%
growth at 10 µM [12]: 85.1%
growth at 10 µM [13]: 92.6%
Activity [14]: Active
IG50 [15]: 10 µM
growth at 10 µM [16]: 99.2%
Activity [17]: Active
growth at 10 µM [18]: 68.3%
IG50 [19]: 1 µM
GI50 at 4 h [20]: 10 µM
growth at 10 µM [21]: 98.8%
growth at 10 µM [22]: 88.9%
growth at 10 µM [23]: 93.3%
growth at 10 µM [24]: 100%
IG50 [25]: 10 µM
growth at 10 µM [26]: 108%
growth at 10 µM [27]: 87%
growth at 10 µM [28]: 95.2%
